Laboratory results reported in patent publication US9505786B2, “Substituted annulated triazines and use thereof” (BAYER INTELLECTUAL PROPERTY GMBH, priority 2012, dated 2016).
Read-outs that look alike come from different tables or passages of the source.

Columns and labels:
[1] = system: aorta rings; experiment: Vasorelaxant effect in vitro (phenylephrine-contracted aorta rings); conditions: rabbit aorta rings, organ bath, phenylephrine contraction, read-out: IC50 (concentration needed to reduce the phenylephrine contraction by 50%)
Protocol: B-1. Vasorelaxant Effect In Vitro
Rabbits are stunned by a blow to the neck and exsanguinated. The aorta is removed, freed from adhering tissue and divided into rings of a width of 1.5 mm. The rings are placed individually under an initial tension in 5 ml organ baths with Krebs-Henseleit solution which is at 37° C., is gassed with carbogen and has the following composition (in each case mM): sodium chloride: 119; potassium chloride: 4.8; calcium chloride dihydrate: 1; magnesium sulphate heptahydrate: 1.4; potassium dihydrogenphosphate: 1.2; sodium bicarbonate: 25; glucose: 10. The contractile force is determined with Statham UC2 cells, amplified and digitalized using A/D transducers (DAS-1802 HC, Keithley Instruments Munich), and recorded in parallel on linear recorders.
To produce a contraction, phenylephrine is added to the bath cumulatively in increasing concentration. After several control cycles, the substance to be investigated is added in each further run in increasing dosage in each case, and the height of the contraction achieved is compared with the height of the contraction reached in the last preceding run. This is used to calculate the concentration needed to reduce the magnitude of the control value by 50% (IC50 value). The standard administration volume is 5 μl; the DMSO content in the bath solution corresponds to 0.1%.

[2] = system: recombinant guanylate cyclase reporter cell line; experiment: Effect on a recombinant guanylate cyclase reporter cell line; type: cell-based
Protocol: B-2. Effect on a Recombinant Guanylate Cyclase Reporter Cell Line
The cellular activity of the compounds according to the invention is determined using a recombinant guanylate cyclase reporter cell line, as described in F. Wunder et al., Anal. Biochem. 339, 104-112 (2005).

[3] = target: human phosphodiesterase 5 (PDE 5) (Homo sapiens (Human), UniProt O76074); experiment: Inhibition of human phosphodiesterase 5 (PDE 5), SPA assay; type: biochemical; conditions: PDE 5 preparation from human platelets, [8-3H] cGMP substrate
Protocol: B-6. Inhibition of Human Phosphodiesterase 5 (PDE 5)
PDE 5 preparations are obtained from human platelets by disruption (Microfluidizer®, 800 bar, 3 passes), followed by centrifugation (75 000 g, 60 min, 4° C.) and ion exchange chromatography of the supernatant on a Mono Q 10/10 column (linear sodium chloride gradient, elution with a 0.2-0.3M solution of sodium chloride in buffer (20 mM Hepes pH 7.2, 2 mM magnesium chloride). Fractions having PDE 5 activity are combined (PDE 5 preparation) and stored at −80° C.
To determine their in vitro action on human PDE 5, the test substances are dissolved in 100% DMSO and serially diluted. Typically, dilution series (1:3) from 200 μM to 0.091 μM are prepared (resulting final concentrations in the test: 4 μM to 0.0018 μM). In each case 2 μl of the diluted substance solutions are placed into the wells of microtitre plates (Isoplate-96/200W; Perkin Elmer). Subsequently, 50 μl of a dilution of the above-described PDE 5 preparation are added. The dilution of the PDE 5 preparation is chosen such that during the later incubation less than 70% of the substrate are converted (typical dilution: 1:100; dilution buffer: 50 mM Tris/hydrochloric acid pH 7.5, 8.3 mM magnesium chloride, 1.7 mM EDTA, 0.2% BSA). The substrate, [8-^3H] cyclic guanosine-3′,5′-monophosphate (1 μCi/μl; Perkin Elmer) is diluted 1:2000 with assay buffer (50 mM tris/hydrochloric acid pH 7.5, 8.3 mM magnesium chloride, 1.7 mM EDTA) to a concentration of 0.0005 μCi/μl. By addition of 50 μl (0.025 μCi) of the diluted substrate, the enzyme reaction is finally started. The test mixtures are incubated at room temperature for 60 min and the reaction is stopped by adding 25 μl of a suspension of 18 mg/ml yttrium scintillation proximity beads in water (phosphodiesterase beads for SPA assays, RPNQ 0150, Perkin Elmer). The microtitre plates are sealed with a film and left to stand at room temperature for 60 min. Subsequently, the plates are analysed for 30 s per well in a Microbeta scintillation counter (Perkin Elmer). IC50 values are determined using the graphic plot of the substance concentration against percentage PDE 5 inhibition.

| SMILES | IC50 ([1]; Oryctolagus cuniculus) | MEC (minimum effective concentration) [2] | IC50 [3] | IC50 [1] |
| --- | --- | --- | --- | --- |
| COCCCc1nc(-c2nn(Cc3ccccc3F)c3ncccc23)nc2c1C(C)(C)C(=O)N2 [Example 46, 2-[1-(2-Fluorobenzyl)-1H-pyrazolo[3,4-b]pyridin-3-yl]-4-(3-methoxypropyl)-5,5-dimethyl-5,7-dihydro-6H-pyrrolo[2,3-d]pyrimidin-6-one] | 71 nM | 100 nM | 120 nM | – |
| O=C1Nc2nc(-c3nn(Cc4ccccc4F)c4ncc(F)cc34)nnc2C12CCCC2 [Example 9, 3′-[5-Fluoro-1-(2-fluorobenzyl)-1H-pyrazolo[3,4-b]pyridin-3-yl]spiro[cyclopentane-1,7′-pyrrolo[2,3-e][1,2,4]triazin]-6′(5′H)-one] | 198 nM | 30 nM | 2000 nM | – |
| CC1(C)C(=O)Nc2nc(-c3nn(Cc4ccccc4F)c4ncccc34)nc(CCC(F)(F)F)c21 [Example 31, 2-[1-(2-Fluorobenzyl)-1H-pyrazolo[3,4-b]pyridin-3-yl]-5,5-dimethyl-4-(3,3,3-trifluoropropyl)-5,7-dihydro-6H-pyrrolo[2,3-d]pyrimidin-6-one] | 309 nM | 100 nM | 260 nM | – |
| NC1(C(F)(F)C(F)(F)F)C(=O)Nc2nc(-c3nn(Cc4ccccc4F)c4ncccc34)ncc21 (stereo not shown) [Example 4, 5-Amino-2-[1-(2-fluorobenzyl)-1H-pyrazolo[3,4-b]pyridin-3-yl]-5-(pentafluoroethyl)-5,7-dihydro-6H-pyrrolo[2,3-d]pyrimidin-6-one] | 215 nM | 100 nM | 1300 nM | – |
| CC(C)Cc1nc(-c2nn(Cc3ccccc3F)c3ncccc23)nc2c1C(C)(C)C(=O)N2 [Example 29, 2-[1-(2-Fluorobenzyl)-1H-pyrazolo[3,4-b]pyridin-3-yl]-4-isobutyl-5,5-dimethyl-5,7-dihydro-6H-pyrrolo[2,3-d]pyrimidin-6-one] | 779 nM | 100 nM | 420 nM | – |
| Cc1nc(C(C)C)sc1-c1nc(-c2nn(Cc3ccccc3F)c3ncccc23)nc2c1C(C)(C)C(=O)N2 [Example 37, 2-[1-(2-Fluorobenzyl)-1H-pyrazolo[3,4-b]pyridin-3-yl]-4-(2-isopropyl-4-methyl-1,3-thiazol-5-yl)-5,5-dimethyl-5,7-dihydro-6H-pyrrolo[2,3-d]pyrimidin-6-one] | 1430 nM | 1000 nM | 500 nM | – |
| CC1(CC2CC2)C(=O)Nc2nc(-c3nn(Cc4ccccc4F)c4ncc(F)cc34)nnc21 (racemic) [Example 5, 7-(Cyclopropylmethyl)-3-[5-fluoro-1-(2-fluorobenzyl)-1H-pyrazolo[3,4-b]pyridin-3-yl]-7-methyl-5,7-dihydro-6H-pyrrolo[2,3-e][1,2,4]triazin-6-one (racemate)] | 137 nM | 100 nM | 260 nM | – |
| Cc1ccc(Cn2nc(-c3nnc4c(n3)NC(=O)C4(C)C)c3cc(F)cnc32)c(F)c1 [Example 10, 3-[5-Fluoro-1-(2-fluoro-4-methylbenzyl)-1H-pyrazolo[3,4-b]pyridin-3-yl]-7,7-dimethyl-5,7-dihydro-6H-pyrrolo[2,3-e][1,2,4]triazin-6-one] | 276 nM | 300 nM | 15 nM | – |
| O=C1Nc2nc(-c3nn(Cc4ccccc4F)c4ncccc34)ncc2C1(O)C(F)(F)C(F)(F)F (stereo not shown) [Example 3, 2-[1-(2-Fluorobenzyl)-1H-pyrazolo[3,4-b]pyridin-3-yl]-5-hydroxy-5-(pentafluoroethyl)-5,7-dihydro-6H-pyrrolo[2,3-d]pyrimidin-6-one] | 266 nM | 30 nM | 2400 nM | – |
| C=CCC1(C)C(=O)Nc2nc(-c3nn(Cc4ccccc4F)c4ncccc34)nnc21 (racemic) [Example 28, (rac) 7-Allyl-3-[1-(2-fluorobenzyl)-1H-pyrazolo[3,4-b]pyridin-3-yl]-7-methyl-5,7-dihydro-6H-pyrrolo[2,3-e][1,2,4]triazin-6-one] | 209 nM | 30 nM | 310 nM | – |
| CCC1(C)C(=O)Nc2nc(-c3nn(Cc4ccccc4F)c4ncc(F)cc34)nnc21 (single isomer, unassigned) [Example 7-2, 7-Ethyl-3-[5-fluoro-1-(2-fluorobenzyl)-1H-pyrazolo[3,4-b]pyridin-3-yl]-7-methyl-5,7-dihydro-6H-pyrrolo[2,3-e][1,2,4]triazin-6-one] | – | – | 350 nM | 185 nM |
| CCC1(C)C(=O)Nc2nc(-c3nn(Cc4ccccc4F)c4ncc(F)cc34)nnc21 (single isomer, unassigned) [Example 7-1, 7-Ethyl-3-[5-fluoro-1-(2-fluorobenzyl)-1H-pyrazolo[3,4-b]pyridin-3-yl]-7-methyl-5,7-dihydro-6H-pyrrolo[2,3-e][1,2,4]triazin-6-one] | – | – | 200 nM | 59 nM |
| CC1(CC2CC2)C(=O)Nc2nc(-c3nn(Cc4ccccc4F)c4ncc(F)cc34)nnc21 (single isomer, unassigned) [Example 5-2, 7-(Cyclopropylmethyl)-3-[5-fluoro-1-(2-fluorobenzyl)-1H-pyrazolo[3,4-b]pyridin-3-yl]-7-methyl-5,7-dihydro-6H-pyrrolo[2,3-e][1,2,4]triazin-6-one] | – | – | 250 nM | 661 nM |
| COc1ccc(Cn2nc(-c3nnc4c(n3)NC(=O)C4(C)C)c3cc(F)cnc32)cc1 [Example 8, 3-[5-Fluoro-1-(4-methoxybenzyl)-1H-pyrazolo[3,4-b]pyridin-3-yl]-7,7-dimethyl-5,7-dihydro-6H-pyrrolo[2,3-e][1,2,4]triazin-6-one] | – | 3000 nM | 150 nM | – |
| CC1(CC(=O)O)C(=O)Nc2nc(-c3nn(Cc4ccccc4F)c4ncc(F)cc34)nnc21 (racemic) [Example 52, (rac){3-[5-Fluoro-1-(2-fluorobenzyl)-1H-pyrazolo[3,4-b]pyridin-3-yl]-7-methyl-6-oxo-6,7-dihydro-5H-pyrrolo[2,3-e][1,2,4]triazin-7-yl}acetic acid] | – | 1000 nM | 3900 nM | – |
| CCOC(=O)C1(C)C(=O)Nc2nc(-c3nn(Cc4ccccc4F)c4ncccc34)ncc21 (racemic) [Example 33, (rac) Ethyl 2-[1-(2-fluorobenzyl)-1H-pyrazolo[3,4-b]pyridin-3-yl]-5-methyl-6-oxo-6,7-dihydro-5H-pyrrolo[2,3-d]pyrimidine-5-carboxylate] | – | 10 nM | 870 nM | – |
| CC1(CC2CC2)C(=O)Nc2nc(-c3nn(Cc4ccccc4F)c4ncc(F)cc34)nnc21 (single isomer, unassigned) [Example 5-1, 7-(Cyclopropylmethyl)-3-[5-fluoro-1-(2-fluorobenzyl)-1H-pyrazolo[3,4-b]pyridin-3-yl]-7-methyl-5,7-dihydro-6H-pyrrolo[2,3-e][1,2,4]triazin-6-one] | – | – | 350 nM | 321 nM |
| CC1(C(=O)NC2CC2)C(=O)Nc2nc(-c3nn(CCC(F)(F)F)c4ncccc34)ncc21 (racemic) [Example 49, (rac) N-Cyclopropyl-5-methyl-6-oxo-2-[1-(3,3,3-trifluoropropyl)-1H-pyrazolo[3,4-b]pyridin-3-yl]-6,7-dihydro-5H-pyrrolo[2,3-d]pyrimidine-5-carboxamide] | – | 300 nM | 4000 nM | – |
